Data as given in patent publication US20030100109A1, “Methods and compositions for in vitro germination and propagation of polygonatum cirrhifolium royle” (priority 2001, published 2003).
Several values for one entry are separate records, joined by “and”; a condition that tells them apart may be missing. Equal entries are not always repeated.

How the values were obtained:
[1] = system: Polygonatum cirrhifolium Royle seeds; test: Induction of germination (hypocotyl emergence) on modified MS medium with GA3 at diurnal 30/20° C. in dark; type: in vivo; conditions: modified MS culture medium, 20/30° C. in dark
Protocol: Ripe purplish berries from plants grown in the wild were collected and dehydrated for 15 days at room temperature (29° C.±2° C.). Seeds were collected from dehydrated berries and washed in tap water with 1-2 drops of Tween-20™ for 2 hours and rinsed three times in distilled water. Seeds were then surface sterilized with 0.1% mercuric chloride (HgCl2) for 3 minutes. Mercuric chloride was removed by washing seeds four times in sterile distilled water. Sterilized, rinsed seeds were placed on semi-solid culture medium in sterile disposable plastic Petri plates (10 cm×2 cm). Macro and micro nutrients in the basal medium were that of Murashige and Skoog's (Murashige, T. and Skoog, F. […]. Physiol Plant 15: 433 -497) but modified to contain 2.2 g/L NH4NO3, 2.0 g/L KNO3, 0.44 g/l CaCl2.2H2O, 0.37 g/L MgSO4.7H20, 0.17 g/L KH2PO4, 37.25 mg/L Na2 EDTA, 27.8 mg/L FeSO4.7H20, 0.83 mg/L KI, 6.2 mg/L H3BO3, 22.3 mg/L MnSO4.4H20, 8.6 mg/L ZnSO4.7H20, 0.25 mg/L Na2 MoO4.2H20, 0.025 mg/L CuSO4.5H2O, 0.025 mg/L CoCl2.6H20. This medium was supplemented with 250 mg/L myo-inosital, 0.5 mgl/l nicotinic acid, 0.5 mg/L pyridoxine HCl, 3 mg/L thiamine HCl, 2 mg/L glycine, 30 g/L sucrose, 7.5 g/L agar and 2, 10, 25, and 50 mg/L gibberellic acid. The pH of the medium was adjusted to 5.8 before adding agar. Medium was sterilized at 121° C. (15 lb. psi pressure) for 20 minutes. […] Seeds with emerged hypocotyl were transferred under aseptic conditions to the above defined basal culture medium containing gibberellic acid at 5, 25, 50 and 100 mg/L. Transferred plants were incubated in an environment having 8-16-hr days under about 2000 lux of light and about 8-16-hr nights in total darkness at a constant temperature of 20° C. ([…]) and at 50-60% RH. Illumination was provided by 40-watt cool, white fluorescent tubes. Germination synchronization as indicated by differentiated epicotyl with emergent coleoptile and radicle was recorded on daily basis. Tables 1 and 2 show the induction of germination as indicated by the emergence of hypocotyl at temperature of 30° C. (±2° C.; dark; RH 50-60%) and diurnal temperature of 30/20° C. (±2° C.; dark; RH 50-60%). In this experiment also there were 4 treatments with varying levels of GA3 2-50 mg/L. Supplemented to the modified MS basal culture medium containing of 2.2 g/L NH4NO3, 2.0 g/L KNO3, 0.44 g/l CaCl2.2H2O, 0.37 g/L MgSO4.7H20, 0.17 g/L KH2PO4, 37.25 mg/L Na2 EDTA, 27.8 mg/L FeSO4.7H20, 0.83 mg/L KI, 6.2 mg/L H3BO3, 22.3 mg/L MnSO4.4H20, 8.6 mg/L ZnSO4.7H20, 0.25 mg/L Na2 MoO4.2H20, 0.025 mg/L CuSO4.5H2O, 0.025 mg/L CoCl2.6H20, […], 0.5 mg/L nicotinic acid, 0.5 mg/L pyridoxine HCl, 3 mg/L thiamine HCl, 2 mg/L glycine, 30 g/L sucrose and 7.5 g/L agar. Cultures were incubated under diurnal temperature regime of 30/20° C. (dark). Each treatment consisted of 15 replicates with 5 seeds in each. Germination is induced in all the treatments (table 2). Maximum germination of 62.12% is obtained at 50 mg/L Of GA3.

[2] = system: Polygonatum cirrhifolium Royle secondary explants; test: De novo axillary bud differentiation and release of foliage leaves on MS medium with GA3, BAP and NAA; type: in vivo; conditions: for Percentage axillary buds producing leaves / Percentage secondary-explants producing axillary buds / Mean number of axillary buds per secondary explant: MS medium, after 16 weeks of culture; for Mean number of axillary buds per secondary explant: ± SE
From the text: Cultures were maintained at 50-60% RH. Plants were subcultured every four weeks in both sets of experiments on the same media formulations. Observations were made periodically but final data was compiled after 16 weeks of culture. In still another embodiment of the present invention, results in table 4 and 5 show the influence of various concentrations and combinations of BAP, NAA and GA3 on the in vitro release of epicotyl dormancy indicated by the release of rosette of leaves and induction of de novo axillary bud differentiation and their sprouting at 20-24° C. under 10-16 hr photoperiod (2000-3500 lux) at 50-60% of RH. […] Each treatment consisted of 24 cultures. These were incubated at 20° C. under 16 hr photoperiod (2000 lux) at 60% RH. […] There is a concomitant increase in the elicitation of response with the increasing concentrations of GA3.

[3] = GA3 1. mg/L in combination and 1.0 mg/L of NAA
[4] = GA3 5. mg/L in combination and 1.0 mg/L of NAA
[5] = GA3 10. mg/L in combination and 1.0 mg/L of NAA
[6] = GA3 15. mg/L in combination and 1.0 mg/L of NAA
[7] = GA3 20. mg/L in combination and 1.0 mg/L of NAA

Structure (SMILES): C=C1C[C@]23C[C@@]1(O)CC[C@H]2[C@@]12C=C[C@H](O)[C@@](C)(C(=O)O1)[C@H]2[C@@H]3C(=O)O [GA3, gibberellic acid]
- Duration of germination ([1]; GA3 2 mg/L): 32-73
- Percent germination ([1]; GA3 2 mg/L): 12.41 ± 6.17%
- Duration of germination ([1]; GA3 10 mg/L): 34-72
- Percent germination ([1]; GA3 10 mg/L): 18.06 ± 4.32%
- Duration of germination ([1]; GA3 25 mg/L): 27-63
- Percent germination ([1]; GA3 25 mg/L): 46.00 ± 5.11%
- Duration of germination ([1]; GA3 50 mg/L): 23-58
- Percent germination ([1]; GA3 50 mg/L): 62.12% and 62.12 ± 3.66%
- Percentage axillary buds producing leaves [2, 3]: 37.03%
- Percentage secondary-explants producing axillary buds [2, 3]: 16.67%
- Mean number of axillary buds per secondary explant [2, 3]: 2.70 ± 0.70
- Remarks ([2]; GA3 1. mg/L in combination and 1.0 mg/L of NAA, remark wraps over r12-r14: Epicotylar bulge swells forms rhizomatous base): Epicotylar bulge
- Percentage axillary buds producing leaves [2, 4]: 46.58— %
- Percentage secondary-explants producing axillary buds [2, 4]: 70.83%
- Mean number of axillary buds per secondary explant [2, 4]: 6.44 ± 1.04
- Percentage axillary buds producing leaves [2, 5]: 66.22%
- Percentage secondary-explants producing axillary buds [2, 5]: 87.50%
- Mean number of axillary buds per secondary explant [2, 5]: 9.06 ± 2.00
- Percentage axillary buds producing leaves [2, 6]: 77.12%
- Percentage secondary-explants producing axillary buds [2, 6]: 100.00%
- Mean number of axillary buds per secondary explant [2, 6]: 11.67 ± 1.96
- Percentage axillary buds producing leaves [2, 7]: 97.03%
- Percentage secondary-explants producing axillary buds [2, 7]: 100.00%
- Mean number of axillary buds per secondary explant [2, 7]: 8.96 ± 2.01
- Remarks ([2]; GA3 20. mg/L in combination and 1.0 mg/L of NAA, remark wraps over r18-r20: Rhizomatous base, callus induction): Rhizomatous
